“And” between values parts separate entries of the source, which are not always exact repeats. Identical values can stand only once. Toxic doses and inconclusive results are not listed. Cut-off read from the data, not from the text of the source: active = T/C of 150% or more; inactive = T/C below 125%.
Tested on: L1210 leukemia ip in BDF1 mice, survival T/C
Assay: NCI In Vivo Anticancer Drug Screen. Data for tumor model L1210 Leukemia (intraperitoneal) in B6D2F1 (BDF1) mice
Conditions: endpoint: mean survival time, higher = longer survival
Summary of the method: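 Mice bearing the transplanted tumor received compound or vehicle. Survival of the treated group was divided by that of the vehicle-treated control group to give the ratio.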

[1] = dose: 100.0 mg/kg/injection, schedule: Q04DX003 (ip), vehicle: Klucel (hydroxypropylcellulose) (HPC)
[2] = dose: 200.0 mg/kg/injection, schedule: Q04DX003 (ip), vehicle: Klucel (hydroxypropylcellulose) (HPC)
[3] = dose: 400.0 mg/kg/injection, schedule: Q04DX003 (ip), vehicle: Klucel (hydroxypropylcellulose) (HPC)
[4] = dose: 100.0 mg/kg/injection, schedule: Q04DX003 (ip), vehicle: saline with Tween-80
[5] = dose: 200.0 mg/kg/injection, schedule: Q04DX003 (ip), vehicle: saline with Tween-80
[6] = dose: 400.0 mg/kg/injection, schedule: Q04DX003 (ip), vehicle: saline with Tween-80
[7] = dose: 100.0 mg/kg/injection, schedule: Q01DX009 (ip), vehicle: Klucel (hydroxypropylcellulose) (HPC)
[8] = dose: 200.0 mg/kg/injection, schedule: Q01DX009 (ip), vehicle: Klucel (hydroxypropylcellulose) (HPC)
[9] = dose: 400.0 mg/kg/injection, schedule: Q01DX009 (ip), vehicle: Klucel (hydroxypropylcellulose) (HPC)

Measured: T/C

CS(=O)(=O)NCC1OC(n2cnc3c(N)ncnc32)C(O)C1O (stereo not drawn)
inactive: dose: 100.0 mg/kg/injection, schedule: Q01DX001 (ip), vehicle: saline 104 % of control | dose: 200.0 mg/kg/injection, schedule: Q01DX001 (ip), vehicle: saline 96 % of control | dose: 400.0 mg/kg/injection, schedule: Q01DX001 (ip), vehicle: saline 98 % of control

N#CC(=C(c1ccccc1)c1ccccc1)c1ccccc1
inactive: [1] 108 % of control | [2] 108 % of control | [3] 106 % of control

CCCOC(c1ccc2c(c1)OCO2)C(C)Br (stereo not drawn)
inactive: [4] 97 % of control | [5] 94 % of control | [6] 94 % of control

CC(C)=C(Cl)c1c(C)cc(C)c(CC(N)=O)c1C
inactive: [7] 98 % of control | [1] 93 % of control | [8] 105 % of control | [2] 98 % of control | [9] 96 % of control | [3] 98 % of control

CC(C)C(NC(=O)CI)C(=O)Nc1ccc(C(=O)O)c(O)c1 (stereo not drawn)
inactive: [1] 108 % of control | [2] 94 % of control

COC(=O)c1ccccc1N=NN(C)CC(C)C
inactive: dose: 50.0 mg/kg/injection, schedule: Q01DX009 (ip), vehicle: saline with Tween-80 110 % of control | dose: 50.0 mg/kg/injection, schedule: Q04DX003 (ip), vehicle: saline with Tween-80 103 % of control | dose: 100.0 mg/kg/injection, schedule: Q01DX009 (ip), vehicle: saline with Tween-80 121 % of control | [4] 114 % of control

Cc1ncc([N+](=O)[O-])n1C
inactive: [1] 100 % of control | [2] 100 % of control | [3] 97 % of control

COc1ccccc1C[N+](C)(C)C
inactive: dose: 20.0 mg/kg/injection, schedule: Q01DX001 (ip), vehicle: saline 95 % of control | dose: 20.0 mg/kg/injection, schedule: Q01DX009 (ip), vehicle: saline 108 % of control | dose: 40.0 mg/kg/injection, schedule: Q01DX001 (ip), vehicle: saline 97 % of control | dose: 40.0 mg/kg/injection, schedule: Q01DX009 (ip), vehicle: saline 108 % of control | dose: 80.0 mg/kg/injection, schedule: Q01DX001 (ip), vehicle: saline 102 % of control

COc1ccccc1NC(=O)c1ccc(Cl)cc1
inactive: [7] 91 % of control | [1] 105 % of control | [8] 98 % of control | [2] 108 % of control | [9] 102 % of control | [3] 97 % of control

O=[N+]([O-])c1ccc2nc(-c3ccccc3)c(-c3ccccc3)nc2c1
inactive: [7] 102 % of control | [1] 98 % of control | [8] 105 % of control | [2] 104 % of control | [9] 96 % of control | [3] 104 % of control

CN(C)N=Nc1ccccc1CO
inactive: dose: 1.0 mg/kg/injection, schedule: Q01DX009 (ip), vehicle: other 94 % of control | dose: 2.0 mg/kg/injection, schedule: Q01DX009 (ip), vehicle: other 103 % of control | dose: 4.0 mg/kg/injection, schedule: Q01DX009 (ip), vehicle: other 103 % of control | dose: 8.0 mg/kg/injection, schedule: Q01DX009 (ip), vehicle: other 103 % of control | dose: 25.0 mg/kg/injection, schedule: Q04DX003 (ip), vehicle: other 105 % of control | dose: 50.0 mg/kg/injection, schedule: Q04DX003 (ip), vehicle: other 120 % of control

CCCCSc1ncnc2nc[nH]c12
inactive: dose: 75.0 mg/kg/injection, schedule: Q01DX001 (ip), vehicle: other 103 % of control | dose: 150.0 mg/kg/injection, schedule: Q01DX001 (ip), vehicle: other 95 % of control | dose: 300.0 mg/kg/injection, schedule: Q01DX001 (ip), vehicle: other 106 % of control

O=C(O)CC1(C(=O)O)CC2C=CC1C2 (stereo not drawn)
inactive: dose: 100.0 mg/kg/injection, schedule: Q01DX001 (ip), vehicle: carboxymethylcellulose (CMC) 97 % of control and 105 % of control | dose: 100.0 mg/kg/injection, schedule: Q04DX002 (ip), vehicle: carboxymethylcellulose (CMC) 97 % of control and 98 % of control | dose: 100.0 mg/kg/injection, schedule: Q04DX003 (ip), vehicle: carboxymethylcellulose (CMC) 95 % of control and 97 % of control | dose: 200.0 mg/kg/injection, schedule: Q01DX001 (ip), vehicle: carboxymethylcellulose (CMC) 97 % of control and 91 % of control | dose: 200.0 mg/kg/injection, schedule: Q04DX002 (ip), vehicle: carboxymethylcellulose (CMC) 97 % of control and 90 % of control | dose: 200.0 mg/kg/injection, schedule: Q04DX003 (ip), vehicle: carboxymethylcellulose (CMC) 97 % of control and 87 % of control | dose: 400.0 mg/kg/injection, schedule: Q01DX001 (ip), vehicle: carboxymethylcellulose (CMC) 99 % of control and 103 % of control | dose: 400.0 mg/kg/injection, schedule: Q04DX002 (ip), vehicle: carboxymethylcellulose (CMC) 87 % of control and 90 % of control | dose: 400.0 mg/kg/injection, schedule: Q04DX003 (ip), vehicle: carboxymethylcellulose (CMC) 94 % of control and 90 % of control

Nc1c(Cl)nc(Cl)nc1C(F)(F)F
inactive: dose: 29.0 mg/kg/injection, schedule: Q01DX Z (ip), vehicle: methylcellulose (MC) 92 % of control | dose: 44.0 mg/kg/injection, schedule: Q01DX Z (ip), vehicle: methylcellulose (MC) 95 % of control

CCCCCCCCC1SC1CCCCCCCC(=O)N1CCCN(C(=O)CCCCCCCC2SC2CCCCCCCC)C1 (stereo not drawn)
inactive: [4] 92 % of control | [5] 95 % of control | [6] 97 % of control

OCC(O)C(O)C(OC1OC(CO)C(O)C(O)C1O)C(O)CO (stereo not drawn)
inactive: dose: 100.0 mg/kg/injection, schedule: Q01DX001 (ip), vehicle: Klucel (hydroxypropylcellulose) (HPC) 99 % of control | dose: 200.0 mg/kg/injection, schedule: Q01DX001 (ip), vehicle: Klucel (hydroxypropylcellulose) (HPC) 89 % of control | dose: 400.0 mg/kg/injection, schedule: Q01DX001 (ip), vehicle: Klucel (hydroxypropylcellulose) (HPC) 99 % of control

Cc1ccc(NC(Nc2ccc(C)c(Cl)c2)C(Cl)(Cl)Cl)cc1Cl
inactive: [7] 96 % of control | [1] 92 % of control | [8] 92 % of control | [2] 118 % of control | [9] 89 % of control | [3] 103 % of control
